Like-named read-outs stand apart in the source and are kept apart here.
Key:
PDE4A = target: T1, PDE4A (Homo sapiens, UniProt P27815); experiment: ITC binding of PTX to the catalytic domain of PDE4A
T1 construct: Catalytic domain of each protein was cloned between BamHI and XhoI restriction sites in; 6xHis-SUMO (N, cleaved yes); made in house; host or cells: E. coli Rosetta 2 (DE3)
Excerpt: (§1) Supplementary Materials and Methods
(§2) Cloning, expression and purification of catalytic domains of PDE4A, […]
(§3) The full length human PDE4A (1005 bp), PDE4D (981 bp) and PDE10A (957 bp) cDNAs, cloned in pET28a(+) expression vector, were purchased from Biomatik, Canada.
(§4) Catalytic domain of each protein was cloned between BamHI and XhoI restriction sites in 6x-His-SUMO-tagged bacterial expression vector. The catalytic domain constructs of PDE4A, PDE4D and PDE10A were transformed in E. coli Rosetta 2 (DE3) competent cells for expression. After growing the transformed cells at 37 °C, till the OD 600nm reached 0.5-0.7, the culture containing constructs of PDE4A and PDE4D were induced with 0.1 mM IPTG and the cultures were incubated at 15 °C for 16-18 h, whereas those with PDE10A constructs were induced with 0.5 mM at incubated for 35 -40 h followed by cell harvesting. Harvested cells were suspended in lysis buffer (500 mM NaCl, 50 mM Tris - Cl pH 8.0, 10 mM Imidazole, 3 mM β-mercaptoethanol) and lysed by sonication (Qsonica). The lysates were cleared by centrifugation at 20,000g for 1h and supernatant was passed through Ni-NTA affinity column (His-Trap, GE Healthcare). Eluted proteins were subjected to salt exchange with a buffer containing 100 mM NaCl, 50 mM Tris-Cl pH 8.0, 3 mM β-mercaptoethanol. The collected proteins were further purified using ion - exchange chromatography (Q column, Hi-Trap, GE Healthcare) followed by overnight treatment with ULP1 at 4 °C to cleave 6xHis-SUMO tag. The tag was separated from proteins by a subsequent Ni-NTA purification. The proteins were further purified on size exclusion 16/600 200 pg column (GE Healthcare) pre-equilibrated with a buffer (100 mM […]
(§5) NaCl, 50 mM Tris pH 8.0, 5% Glycerol, 3 mM β-mercaptoethanol). After purifying with a gel filtration column, purity was determined on 12% SDS -PAGE and all three proteins […]
(§6) concentrated to 20mg/ml, flash cooled with liquid nitrogen and stored at -80°C.
(§7) Isothermal titration calorimetry (ITC) binding studies […]
(§8) of PDE4A, PDE4D and PDE10A were determined at 25°C, using Affinity ITC (TA instruments). […]

PDE4D = target: T2, PDE4D (Homo sapiens, UniProt Q08499); experiment: ITC binding of PTX to the catalytic domain of PDE4D
T2 construct: Catalytic domain of each protein was cloned between BamHI and XhoI restriction sites in; 6xHis-SUMO (N, cleaved yes); made in house; host or cells: E. coli Rosetta 2 (DE3)
Excerpt: as §1, §2, §3, §4, §5, §6, §7, §8

testicular spermatozoa = experiment: Twitching motility of testicular spermatozoa; format: cell-based, human; conditions: PTX 1 mM, PTXm-1 0.25 mM; for spermatozoa with twitching motility vs control: increased incubation time (1 h)
Excerpt: Testicular tissue from men diagnosed with prostate cancer and admitted for orchiectomy (N = 8, age 74.33 ± 5.61 years) were collected from Urology operation theater in sterile PBS. The testis was transferred to Petri dish, washed in phosphate buffered solution (PBS) and cut into small pieces. Seminiferous tubule contents were released into the Petri dish containing EBSS medium with 0.1% BSA by milking the seminiferous tubules with the help of with the help of sterile glass slides. The cell suspension was screened for the presence of testicular spermatozoa under inverted microscope (200 × magnification). The cell suspension was divided into four equal parts- (a) Control (C): […] (b) Vehicle control (VC): […] The testicular sperm suspension was processed by discontinuous gradient technique using 40% and 80% density solutions ([…], Germany). The discontinuous gradient column was prepared by adding 1 mL of 80% and 40% gradient solutions sequentially in a sterile test tube. The testicular cell suspension was carefully added above the gradients and centrifuged at 500 g for 20 min. The pellet obtained after centrifugation was further washed by centrifuging at 400 g for 8 min twice.

[1] = test system: Oct4, Sox2, Nanog, Cdx2 in blastocysts; experiment: mRNA expression of pluripotency and trophectoderm genes in blastocysts; format: cell-based, Swiss albino mice; conditions: PTX 1 mM, PTXm-1 0.25 mM
Procedure: RNA was extracted from blastocyst stage embryos (30 per group) using an RNA isolation aqueous micro kit (Catalogue No. AM1931; Ambion, Foster City, CA, USA) as explained. Briefly, embryos were lysed using lysis buffer to release total RNA and was eluted using elution buffer. RNA obtained was treated with DNase for 20 min at 37 °C and stored at − 80 °C. cDNA was synthesized using a Superscript first strand cDNA synthesis kit for reverse transcription polymerase chain reaction (Catalogue No. E6300; NewEngland Biolabs, Ipswich, MA, USA).
Quantitative PCR for relative expression of Sox2, Nanog, and Oct4 mRNA was done using StepOne real-time PCR system (Applied Biosystems, California, USA) with TaqMan® Gene Expression Assay probes and TaqMan® Fast Advanced MixThe relative mRNA expression of Cdx2 was also estimated using real-time PCR system with SYBER Green chemistry (TaKaRa, Shiga, Japan, Cat. No. RR420A). All the data were normalized with GAPDH housekeeping gene as an internal control. The relative expression levels were calculated in terms of fold change. The IDs for TaqMan® Gene Expression Assay probes used in this study and the specific primers used for Cdx2 gene and GAPDH housekeeping gene are given in Supplementary Table S1.

mouse bone marrow cells [2] = conditions: cited from earlier work
[3] = test system: spermatozoa from normozoospermic samples; experiment: Sperm DNA integrity by TUNEL assay; conditions: 24 h in vitro incubation; PTX 1 mM, PTXm-1 0.25 mM; control 6.5%
mouse bone marrow cells [4] = conditions: cited from earlier work; remark: listed apart in the source
[5] = 15 min after incubation, control 5.06 ± 0.98%

T2 sequence (Q08499 386-715 limits assumed): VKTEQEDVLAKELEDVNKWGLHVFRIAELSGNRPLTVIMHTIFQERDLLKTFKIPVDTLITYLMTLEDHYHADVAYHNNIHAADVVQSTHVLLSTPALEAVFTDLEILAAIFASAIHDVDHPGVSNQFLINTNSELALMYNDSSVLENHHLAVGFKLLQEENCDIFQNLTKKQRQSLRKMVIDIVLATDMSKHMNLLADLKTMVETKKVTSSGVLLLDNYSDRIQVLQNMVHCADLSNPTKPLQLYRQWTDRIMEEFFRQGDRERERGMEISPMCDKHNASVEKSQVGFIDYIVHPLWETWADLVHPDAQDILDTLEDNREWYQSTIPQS
T1 sequence (P27815 357-686 limits assumed): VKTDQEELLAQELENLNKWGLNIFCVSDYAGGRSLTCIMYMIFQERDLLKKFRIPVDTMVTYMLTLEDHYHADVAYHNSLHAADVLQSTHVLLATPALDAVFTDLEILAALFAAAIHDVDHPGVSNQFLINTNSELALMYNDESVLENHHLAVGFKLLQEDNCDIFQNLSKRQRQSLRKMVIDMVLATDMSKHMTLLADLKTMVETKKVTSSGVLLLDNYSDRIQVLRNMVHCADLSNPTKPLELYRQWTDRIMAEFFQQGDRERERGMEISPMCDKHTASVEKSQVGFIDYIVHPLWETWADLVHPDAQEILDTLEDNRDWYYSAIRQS

Structure (SMILES) | change in enthalpy (ΔH) (PDE4A) | change in entropy (ΔS) (PDE4A) | stoichiometry (N) (PDE4A) | change in enthalpy (ΔH) (PDE4D) | change in entropy (ΔS) (PDE4D) | stoichiometry (N) (PDE4D) | spermatozoa with twitching motility (testicular spermatozoa; [5]) [%] | spermatozoa with twitching motility (testicular spermatozoa; 24 h incubation) [%] | spermatozoa with twitching motility vs control (testicular spermatozoa) | expression of pluripotency genes in blastocysts [1] | cytotoxic effect on mouse bone marrow cells (mouse bone marrow cells [2]) | spermatozoa with damaged DNA (TUNEL) [3] [%] | cytotoxic effect on mouse bone marrow cells (mouse bone marrow cells [2]; mouse, in vivo) | genotoxic effect on mouse bone marrow cells in vivo (mouse bone marrow cells [4])
CC(=O)CCCCn1c(=O)c2c(ncn2C)n(C)c1=O [PTX, pentoxifylline] | ~ -8.3±0.30 kcal/mol | ~ -11.90 cal/mol.K | ~ 1.08±0.03 | ~ -10.56±1.07 kcal/mol | ~ -16.47 cal/mol.K | ~ 0.93±0.07 | 11.78 ± 1.36 | 7.90 ± 1.06 | significantly higher (P < 0.001) | did not differ between the groups | do not have any cytotoxic effect | 10.25 |  | 
COc1ccc2cc(/C=C/C(=O)CCCCn3c(=O)c4c(ncn4C)n(C)c3=O)ccc2c1 [PTXm-1] |  |  |  |  |  |  | 9.95 ± 0.79 | 13.39 ± 0.65 | significantly higher (P < 0.001) | did not differ between the groups |  |  | do not have any cytotoxic effect | significantly lower genotoxic effect

Source: paper PMC8192908 (Scientific Reports, 2021)
